Test results published in patent US9708334B2, “Substituted 2,4,5,6-tetrahydropyrrolo[3,4-c]pyrazole and 4,5,6,7-tetrahydro-2H-pyrazolo[4,3-c]pyridine compounds as GlyT1 inhibitors” (DART NEUROSCIENCE (CAYMAN) LTD., priority 2014, dated 2017).

Molecular target: T1, GlyT1 (Homo sapiens, UniProt P48067)
T1 construct: expressed in transfected cells
T1 sequence (P48067 1-706): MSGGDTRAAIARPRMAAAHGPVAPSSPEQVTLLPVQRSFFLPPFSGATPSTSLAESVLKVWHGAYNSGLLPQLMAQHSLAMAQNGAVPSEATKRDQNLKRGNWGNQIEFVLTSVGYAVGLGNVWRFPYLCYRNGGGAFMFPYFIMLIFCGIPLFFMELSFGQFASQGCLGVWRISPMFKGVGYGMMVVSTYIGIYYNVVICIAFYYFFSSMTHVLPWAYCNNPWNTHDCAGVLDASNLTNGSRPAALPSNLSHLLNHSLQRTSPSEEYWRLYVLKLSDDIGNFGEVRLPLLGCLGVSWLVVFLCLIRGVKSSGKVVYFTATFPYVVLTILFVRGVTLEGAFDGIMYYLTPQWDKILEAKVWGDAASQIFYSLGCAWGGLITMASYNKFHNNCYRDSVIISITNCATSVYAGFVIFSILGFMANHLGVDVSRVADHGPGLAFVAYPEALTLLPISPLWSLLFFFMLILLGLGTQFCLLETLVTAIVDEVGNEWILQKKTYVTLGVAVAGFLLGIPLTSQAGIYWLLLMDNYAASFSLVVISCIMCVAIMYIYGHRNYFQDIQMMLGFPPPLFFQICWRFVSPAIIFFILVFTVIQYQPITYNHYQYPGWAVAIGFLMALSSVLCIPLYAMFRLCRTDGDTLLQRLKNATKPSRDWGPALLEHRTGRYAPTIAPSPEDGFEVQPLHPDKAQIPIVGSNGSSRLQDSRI
Assay: Glycine Transporter 1 (GlyT1) uptake assay, scintillation proximity assay of [14C]-glycine uptake
Type: cell-based
Conditions: SPA, four parameter logistic fit, read-out: GlyT1 (pIC50) (converted)
Procedure, shortened: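 IC50 values derive from four-parameter logistic curves fitted to dose-response data. Uptake of [14C]-glycine measured in scintillation proximity format.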

Structure (SMILES)	IC50
CCS(=O)(=O)c1ccc(OC(C)C)c(C(=O)N2Cc3cn(-c4ccc(F)cc4F)nc3C2)c1 [Example 81, 2-(2 4-Difluorophenyl)-5-[5-(ethanesulfonyl)-2-(propan-2-yloxy)benzoyl]-2H 4H 5H 6H-pyrrolo[3,4-c]pyrazole]	100 to 1000 nM
CS(=O)(=O)c1ccc(-c2cccc(F)c2)c(C(=O)N2Cc3cn(-c4cncc(F)c4)nc3C2)c1 [Example 108, 3-Fluoro-5-{5-[2-(3-fluorophenyl)-5-methanesulfonylbenzoyl]-2H 4H 5H 6H-pyrrolo[3,4-c]pyrazol-2-yl}pyridine]	< 100 nM
CCc1cc(-n2cc3c(n2)CN(C(=O)c2cc(S(C)(=O)=O)ccc2O[C@@H](C)C(F)(F)F)C3)ccn1 [Example 133, 2-Ethyl-4-[5-(5-methanesulfonyl-2-{[(2S)-1 1 1-trifluoropropan-2-yl]oxy}benzoyl)-2H 4H 5H 6H-pyrrolo[3,4-c]pyrazol-2-yl]pyridine]	< 100 nM
Cc1cccc(-n2cc3c(n2)CN(C(=O)c2cc(S(C)(=O)=O)ccc2O[C@@H](C)C(F)(F)F)C3)c1 [Example 34, 5-(5-Methanesulfonyl-2-{[(2S)-1 1 1-trifluoropropan-2-yl]oxy}benzoyl)-2-(3-methylphenyl)-2H 4H 5H 6H-pyrrolo[3,4-c]pyrazole]	< 100 nM
CC(C)(C)COc1ccc(S(C)(=O)=O)cc1C(=O)N1Cc2cn(-c3ccc(F)cc3)nc2C1 [Example 341, 5-[2-(2 2-Dimethylpropoxy)-5-methanesulfonylbenzoyl]-2-(4-fluorophenyl)-2H 4H 5H 6H-pyrrolo[3,4-c]pyrazole]	< 100 nM
COc1c(C#N)ccc(O[C@@H](C)C(F)(F)F)c1C(=O)N1Cc2cn(-c3cncc(F)c3)nc2C1 [Example 250, 3-[2-(5-Flouropyridin-3-yl)-2H 4H 5H 6H-pyrrolo[3,4-c]pyrazole-5-carbonyl]-2-methoxy-4-{[(2S)-1 1 1-trifluoropropan-2-yl]oxy}benzonitrile]	< 100 nM
COc1c(C#N)ccc(O[C@@H](C)C(F)(F)F)c1C(=O)N1Cc2cn(-c3ccc(C#N)cc3)nc2C1 [Example 283, 3-[2-(4-Cyanophenyl)-2H 4H 5H 6H-pyrrolo[3,4-c]pyrazole-5-carbonyl]-2-methoxy-4-{[(2S)-1 1 1-trifluoropropan-2-yl]oxy}benzonitrile]	< 100 nM
CC(Oc1ccc(C(=O)N2CCC2)c(Cl)c1C(=O)N1CCc2nn(-c3ccc(F)cc3)cc2C1)C(F)(F)F (centres unmarked) [Example 6, 1-{2-Chloro-3-[2-(4-fluorophenyl)-2H 4H 5H 6H 7H-pyrazolo[4,3-c]pyridine-5-carbonyl]-4-[(1 1 1-trifluoropropan-2-yl)oxy]benzoyl}azetidine]	> 10000 nM
COc1c(C#N)ccc(OC2CCCC2)c1C(=O)N1Cc2cn(-c3ccc(F)cc3)nc2C1 [Example 513, 4-(Cyclopentyloxy)-3-[2-(4-fluorophenyl)-2H 4H 5H 6H-pyrrolo[3,4-c]pyrazole-5-carbonyl]-2-methoxybenzonitrile]	< 100 nM
COc1c(C#N)ccc(O[C@@H](C)C(F)(F)F)c1C(=O)N1CCc2nn(-c3cccnc3)cc2C1 [Example 237, 2-Methoxy-3-[2-(pyridin-3-yl)-2H 4H 5H 6H 7H-pyrazolo[4,3-c]pyridine-5-carbonyl]-4-{[(2S)-1 1 1-trifluoropropan-2-yl]oxy}benzonitrile]	100 to 1000 nM
COc1c(C#N)ccc(OC(C)C(F)(F)F)c1C(=O)N1CCc2nn(-c3ccc(F)cc3F)cc2C1 (centres unmarked) [Example 194, 3-[2-(2 4-Difluorophenyl)-2H 4H 5H 6H 7H-pyrazolo[4,3-c]pyridine-5-carbonyl]-2-methoxy-4-[(1 1 1-trifluoropropan-2-yl)oxy]benzonitrile]	100 to 1000 nM
CS(=O)(=O)c1ccc(C2CCCC2)c(C(=O)N2CCc3nn(-c4ccccc4)cc3C2)c1 [Example 170, 5-(2-Cyclopentyl-5-methanesulfonylbenzoyl)-2-phenyl-2H 4H 5H 6H 7H-pyrazolo[4,3-c]pyridine]	< 100 nM
CC(C)(C)COc1ccc(S(C)(=O)=O)cc1C(=O)N1Cc2cn(-c3cccc(C(F)(F)F)c3F)nc2C1 [Example 49, 5-[2-(2 2-Dimethylpropoxy)-5-methanesulfonylbenzoyl]-2-[2-fluoro-3-(trifluoromethyl)phenyl]-2H 4H 5H 6H-pyrrolo[3,4-c]pyrazole]	< 100 nM
Cc1ncc(F)cc1-n1cc2c(n1)CN(C(=O)c1cc(C#N)ccc1O[C@@H](C)C(F)(F)F)C2 [Example 354, 3-[2-(5-Fluoro-2-methylpyridin-3-yl)-2H 4H 5H 6H-pyrrolo[3,4-c]pyrazole-5-carbonyl]-4-{[(2S)-1 1 1-trifluoropropan-2-yl]oxy}benzonitrile]	1000 to 10000 nM
C[C@H](Oc1ccc(S(C)(=O)=O)cc1C(=O)N1Cc2cn(-c3ccc(F)c(F)c3)nc2C1)C(F)(F)F [Example 37, 2-(3 4-Difluorophenyl)-5-(5-methanesulfonyl-2-{[(2S)-1 1 1-trifluoropropan-2-yl]oxy}benzoyl)-2H 4H 5H 6H-pyrrolo[3,4-e]pyrazole]	< 100 nM
Cc1cc(-n2cc3c(n2)CN(C(=O)c2cc(C#N)ccc2O[C@@H](C)C(F)(F)F)C3)ncc1F [Example 348]	100 to 1000 nM
C[C@H](Oc1ccc(C#N)cc1C(=O)N1Cc2cn(CC3CC3(F)F)nc2C1)C(F)(F)F (stereo partly drawn) [Example 457, 3-{2-[(2 2-Difluorocyclopropyl)methyl]-2H 4H 5H 6H-pyrrolo[3,4-c]pyrazole-5-carbonyl}-4-{[(2S)-1 1 1-trifluoropropan-2-yl]oxy}benzonitrile]	100 to 1000 nM
CS(=O)(=O)c1ccc(-c2cccnc2)c(C(=O)N2Cc3cn(-c4ccccc4F)nc3C2)c1 [Example 555, (2-(2-Fluorophenyl)pyrrolo[3,4-c]pyrazol-5(2H,4H,6H)-yl)(5-(methylsulfonyl)-2-(pyridin-3-yl)phenyl)methanone]	100 to 1000 nM
CC(C)(C)COc1ccc(S(C)(=O)=O)cc1C(=O)N1Cc2cn(-c3ccccc3F)nc2C1 [Example 63, 5-[2-(2 2-Dimethylpropoxy)-5-methanesulfonylbenzoyl]-2-(2-fluorophenyl)-2H 4H 5H 6H-pyrrolo[3,4-c]pyrazole]	< 100 nM
Cc1nc(-n2cc3c(n2)CN(C(=O)c2cc(S(C)(=O)=O)ccc2O[C@@H](C)C(F)(F)F)C3)ccc1F [Example 362, 3-Fluoro-6-[5-(5-methanesulfonyl-2-{[(2S)-1 1 1-trifluoropropan-2-yl]oxy}benzoyl)-2H 4H 5H 6H-pyrrolo[3,4-c]pyrazol-2-yl]-2-methylpyridine]	< 100 nM
CCS(=O)(=O)c1ccc(O[C@@H](C)C(F)(F)F)c(C(=O)N2Cc3cn(-c4cncc(F)c4)nc3C2)c1 [Example 114, 3-{5-[5-(Ethanesulfonyl)-2-{[(2S)-1 1 1-trifluoropropan-2-yl]oxy}benzoyl]-2H 4H 5H 6H-pyrrolo[3,4-c]pyrazol-2-yl}-5-fluoropyridine]	< 100 nM
C[C@H](Oc1ccc(C#N)cc1C(=O)N1Cc2cn(CC3CC(F)(F)C3)nc2C1)C(F)(F)F [Example 462, 3-{2-[(3 3-Difluorocyclobutyl)methyl]-2H 4H 5H 6H-pyrrolo[3,4-c]pyrazole-5-carbonyl}-4-{[(2S)-1 1 1-trifluoropropan-2-yl]oxy}benzonitrile]	100 to 1000 nM
Cc1cccc(-n2cc3c(n2)CN(C(=O)c2cc(S(C)(=O)=O)ccc2OCC(C)C)C3)c1 [Example 39, 5-[5-Methanesulfonyl-2-(2-methylpropoxy)benzoyl]-2-(3-methylphenyl)-2H 4H 5H 6H-pyrrolo[3,4-e]pyrazole]	< 100 nM
